The subject of assay [1] is Pseudomonas aeruginosa. Put plainly: Antibacterial activity against Pseudomonas aeruginosa MTCC 741 at 4 mg/ml after 24 hr by agar well diffusion assay. The assay is classed as functional, organism-based. (In general: Agar diffusion results depend on both activity and mobility in agar.)
The test system of assay [2] is Escherichia coli. Put plainly: Antibacterial activity against Escherichia coli MTCC 1652 at 4 mg/ml after 24 hr by agar well diffusion assay. The assay is classed as functional, organism-based.
Assay [3] deals with Candida albicans. In words: Antifungal activity against Candida albicans MTCC 227 at 4 mg/ml after 24 hr by agar well diffusion assay. The assay is classed as functional. As to conditions: for zone of inhibition at 4000 µg/mL: MTCC 227, 24 h, read-out: DIZ.
In assay [4] the test system is Staphylococcus aureus. Put plainly: Antibacterial activity against Staphylococcus aureus MTCC 96 after 24 hr by modified agar well diffusion assay. Conditions: MTCC 96, 24 h. The class given is functional.
Assay [5] relates to Bacillus subtilis. Put plainly: Antibacterial activity against Bacillus subtilis MTCC 121 at 4 mg/ml after 24 hr by agar well diffusion assay. The assay is classed as functional. Conditions: MTCC 121, 24 h, read-out: DIZ.
The subject of assay [6] is Rattus norvegicus. Put plainly: Anti-inflammatory activity in Rattus norvegicus Wistar albino (rat) assessed as inhibition of carrageenan-induced paw edema at 50 mg/kg, po administered 30 min prior to carrageenan-challenge measured at 1 hr by plethysmometric analysis relative to control. The class given is functional. In general terms: Carrageenan injected into the paw causes an acute inflammation.

The test system of assay [7] is Rattus norvegicus. In words: Anti-inflammatory activity in Rattus norvegicus Wistar albino (rat) assessed as inhibition of carrageenan-induced paw edema at 50 mg/kg, po administered 30 min prior to carrageenan-challenge measured at 3 hr by plethysmometric analysis relative to control. The assay is classed as functional.
Assay [8] relates to Bacillus subtilis. In words: Antibacterial activity against Bacillus subtilis MTCC 121 after 24 hr by modified agar well diffusion assay. The class given is functional. Conditions: MTCC 121, 24 h.
The test system of assay [9] is Staphylococcus aureus. In words: Antibacterial activity against Staphylococcus aureus MTCC 96 at 4 mg/ml after 24 hr by agar well diffusion assay. The assay is classed as functional. As to conditions: MTCC 96, 24 h, read-out: DIZ.
Assay [10] concerns Candida albicans. Put plainly: Antifungal activity against Candida albicans MTCC 227 after 24 hr by modified agar well diffusion assay. The assay is classed as functional.
For assay [11], the system named is Saccharomyces cerevisiae. In words: Antifungal activity against Saccharomyces cerevisiae MTCC 170 after 24 hr by modified agar well diffusion assay. The class given is functional.
In assay [12] the test system is Rattus norvegicus. Put plainly: Anti-inflammatory activity in Rattus norvegicus Wistar albino (rat) assessed as inhibition of carrageenan-induced paw edema at 50 mg/kg, po administered 30 min prior to carrageenan-challenge measured at 4 hr by plethysmometric analysis relative to control. The assay is classed as functional.
Assay [13] deals with Saccharomyces cerevisiae. In words: Antifungal activity against Saccharomyces cerevisiae MTCC 170 at 4 mg/ml after 24 hr by agar well diffusion assay. Conditions: for zone of inhibition at 4000 µg/mL: MTCC 170, 24 h, read-out: DIZ. The class given is functional.
The test system of assay [14] is Rattus norvegicus. In words: Anti-inflammatory activity in Rattus norvegicus Wistar albino (rat) assessed as inhibition of carrageenan-induced paw edema at 50 mg/kg, po administered 30 min prior to carrageenan-challenge measured at 2 hr by plethysmometric analysis relative to control. The class given is functional.

This note sets out measurements from ChEMBL document CHEMBL3044986, “Synthesis of 1-(4-aminosulfonylphenyl)-3,5-diarylpyrazoline derivatives as potent antiinflammatory and antimicrobial agents” (2012).

Converted amounts (≈) assume the structure as drawn. The source made the active and inactive calls. No cut-off for these calls is given here.

Usually MIC stands for the lowest concentration that inhibits growth of the organism. The term inhibition in vivo denotes the relative decrease from the control value, in per cent. In the case of `COc1ccc(C2=NN(c3ccc(S(N)(=O)=O)cc3)C(c3ccc(OC)cc3OC)C2)c(O)c1` (stereo not drawn), the outcome in assay [1] and in assay [2] was inactive. The “diameter of the inhibition zone (DIZ)” value in assay [3] and in [13] was “inactive” throughout. Further, the MIC in [4] worked out at 128 µg/mL (≈ 265 µM); in assay [8], 64 µg/mL (≈ 132 µM). The zone of inhibition at 4000 µg/mL was 18.6 mm in assay [5] and 15.6 mm in assay [9]. Besides, the inhibition in vivo at 50 mg/kg in assay [6] was 33.3%; in [7], 40.6%; in assay [12], 37.1%; in assay [14], 16.5%. In addition, the MIC result in [10] and in [11] was “inactive” each time.

Take `COc1cc(OC)cc(C2CC(c3ccc(F)cc3)=NN2c2ccc(S(N)(=O)=O)cc2)c1` (stereo not drawn): the result in assay [1] and in [2] was inactive. For the same molecule, the “diameter of the inhibition zone (DIZ)” value in assay [3] and in assay [13] was “inactive” each time. For the same molecule, the MIC is over 256 µg/mL in assay [4] and 256 µg/mL (≈ 562 µM) in assay [8]. Also, the zone of inhibition at 4000 µg/mL in [5] turned out to be 13.6 mm; in [9], 12.6 mm. The inhibition in vivo at 50 mg/kg stood at 49.3% in assay [6], 51.1% in [7], 50% in assay [12] and 33.1% in [14]. Also, the MIC entry in assay [10] and in [11] was “inactive” throughout.

Regarding `COc1ccc(C2CC(c3ccc(Cl)cc3)=NN2c2ccc(S(N)(=O)=O)cc2)c(OC)c1` (stereo not drawn), the result in assay [1] and in [2] was inactive. Moreover, the zone of inhibition at 4000 µg/mL in assay [3] was 13.6 mm; in assay [5], 19.3 mm; in assay [9], 18.3 mm; in assay [13] it was 16 mm. Further, the minimum inhibitory concentration (MIC) in assay [4] came to 64 µg/mL (≈ 136 µM); in assay [8], 64 µg/mL (≈ 136 µM); in [10] (MTCC 227, 24 h), 128 µg/mL (≈ 271 µM); in assay [11] (MTCC 170, 24 h) it was 64 µg/mL (≈ 136 µM). For the same molecule, the inhibition in vivo at 50 mg/kg worked out at 43.5% in assay [6], 57.2% in assay [7], 32.9% in assay [12] and 48.8% in assay [14].

For the molecule `COc1ccc(C2CC(c3ccc(Cl)cc3)=NN2c2ccc(S(N)(=O)=O)cc2)cc1OC` (stereo not drawn), the outcome in [1] and in assay [2] was inactive. The “diameter of the inhibition zone (DIZ)” value in assay [3] and in assay [13] was “inactive” each time. For the same molecule, the minimum inhibitory concentration (MIC) in [4] was 256 µg/mL (≈ 542 µM); in assay [8] it was 128 µg/mL (≈ 271 µM). The zone of inhibition at 4000 µg/mL in [5] was 17.3 mm; in assay [9], 13.6 mm. Besides, the inhibition in vivo at 50 mg/kg in [6] stood at 57.9%; in assay [7] it was 68.3%; in assay [12] it was 49.5%; in assay [14], 64.6%. Also, the MIC entry in assay [10] and in assay [11] was “inactive” in each case.

As for `COc1cc(OC)cc(C2CC(c3ccc(OC)cc3O)=NN2c2ccc(S(N)(=O)=O)cc2)c1` (stereo not drawn), the result in assay [1] and in [2] was inactive. The “diameter of the inhibition zone (DIZ)” value in [3] and in assay [13] was “inactive” in each case. Besides, the MIC in assay [4] and in [8] was 256 µg/mL (≈ 529 µM) throughout. For the same molecule, the zone of inhibition at 4000 µg/mL was found to be 14.3 mm in assay [5] and 13.3 mm in assay [9]. Further, the inhibition in vivo at 50 mg/kg in [6] amounted to 31.9%; in assay [7] it was 62.8%; in assay [12] it was 50%; in assay [14] it was 57.5%. The MIC result in [10] and in assay [11] was “inactive” throughout.

Regarding `COc1cccc(C2CC(c3ccc(Cl)cc3)=NN2c2ccc(S(N)(=O)=O)cc2)c1OC` (stereo not drawn), the result in [1] and in assay [2] was inactive. Further, the zone of inhibition at 4000 µg/mL in [3] was 15.3 mm; in assay [5] it was 15 mm; in assay [9], 13.6 mm; in [13], 17.3 mm. Moreover, the MIC turned out to be 256 µg/mL (≈ 542 µM) in [4]; 128 µg/mL (≈ 271 µM) in assay [8]; 64 µg/mL (≈ 136 µM) in [10] (MTCC 227, 24 h); 32 µg/mL (≈ 67.8 µM) in assay [11] (MTCC 170, 24 h). In addition, the inhibition in vivo at 50 mg/kg was determined as 18.8% in [6], 46.1% in assay [7], 27.8% in [12] and 35.4% in assay [14].

Consider `COc1ccc(OC)c(C2CC(c3ccc(Cl)cc3)=NN2c2ccc(S(N)(=O)=O)cc2)c1` (stereo not drawn), for which the outcome in assay [1] and in [2] was inactive. Also, the zone of inhibition at 4000 µg/mL in assay [3] was 14.3 mm; in [5], 18.6 mm; in assay [9], 15.3 mm; in assay [13], 17.6 mm. Besides, the MIC in assay [4] came to 128 µg/mL (≈ 271 µM); in assay [8], 64 µg/mL (≈ 136 µM); in [10] (MTCC 227, 24 h), 128 µg/mL (≈ 271 µM); in [11] (MTCC 170, 24 h) it was 32 µg/mL (≈ 67.8 µM). The inhibition in vivo at 50 mg/kg in assay [6] worked out at 14.5%; in assay [7], 58.9%; in assay [12] it was 45.4%; in assay [14] it was 48.8%.

With `COc1ccc(C2=NN(c3ccc(S(N)(=O)=O)cc3)C(c3cccc(OC)c3OC)C2)c(O)c1` (stereo not drawn), the outcome in assay [1] and in assay [2] was inactive. Moreover, the zone of inhibition at 4000 µg/mL in assay [3] is 14.3 mm; in [5] it was 20.6 mm; in [9], 18.6 mm; in assay [13] it was 15.6 mm. Besides, the MIC in assay [4] was 64 µg/mL (≈ 132 µM); in assay [8] it was 32 µg/mL (≈ 66.2 µM); in assay [10] (MTCC 227, 24 h) it was 128 µg/mL (≈ 265 µM); in assay [11] (MTCC 170, 24 h) it was 64 µg/mL (≈ 132 µM). In addition, the inhibition in vivo at 50 mg/kg in [6] is 47.8%; in assay [7], 45%; in [12], 43.8%; in assay [14], 25.2%.

Regarding `COc1cccc(C2CC(c3ccc(F)cc3)=NN2c2ccc(S(N)(=O)=O)cc2)c1OC` (stereo not drawn), the result in assay [1] and in [2] was inactive. Moreover, the zone of inhibition at 4000 µg/mL is 13.6 mm in assay [3], 18.3 mm in assay [5], 17.6 mm in [9] and 15.6 mm in [13]. The MIC in assay [4] was determined as 128 µg/mL (≈ 281 µM); in assay [8], 64 µg/mL (≈ 141 µM); in assay [10] (MTCC 227, 24 h), 128 µg/mL (≈ 281 µM); in assay [11] (MTCC 170, 24 h), 64 µg/mL (≈ 141 µM). For the same molecule, the inhibition in vivo at 50 mg/kg in assay [6] turned out to be 59.4%; in assay [7] it was 53.8%; in assay [12] it was 51.5%; in assay [14] it was 40.1%.

As to `COc1cc(OC)cc(C2CC(c3ccc(Cl)cc3)=NN2c2ccc(S(N)(=O)=O)cc2)c1` (stereo not drawn), the result in assay [1] and in [2] was inactive. The zone of inhibition at 4000 µg/mL in assay [3] was 12.6 mm; in assay [5], 13.6 mm; in assay [9], 12 mm; in [13], 16.3 mm. The MIC was over 256 µg/mL in [4]; over 256 µg/mL in assay [8]; over 256 µg/mL in [10] (MTCC 227, 24 h); 64 µg/mL (≈ 136 µM) in [11] (MTCC 170, 24 h). The inhibition in vivo at 50 mg/kg came out at 11.6% in [6], 46.1% in assay [7], 46.4% in [12] and 26.8% in [14].

For `O=C(O)c1cn(C2CC2)c2cc(N3CCNCC3)c(F)cc2c1=O` [CIPROFLOXACIN], the minimal inhibitory concentration (MIC) in [4] and in assay [8] was 5 µg/mL (≈ 15.1 µM) throughout. Moreover, the figures for the zone of inhibition at 4000 µg/mL in assay [5] and in assay [9] were 24 mm and 26.6 mm, respectively.

For `C[C@@H]1[C@H](O)[C@@H](C)/C=C/C=C/C=C/C=C/C=C/C=C/C=C/[C@H](O[C@@H]2O[C@H](C)[C@@H](O)[C@H](N)[C@@H]2O)C[C@@H]2O[C@](O)(C[C@@H](O)C[C@@H](O)[C@H](O)CC[C@@H](O)C[C@@H](O)CC(=O)O[C@H]1C)C[C@H](O)[C@H]2C(=O)O` [AMPHOTERICIN B], the zone of inhibition at 4000 µg/mL in assay [3] came to 14.3 mm; in [13] it was 13.6 mm. The MIC in [10] (MTCC 227, 24 h) amounted to 100 µg/mL (≈ 108 µM); in assay [11] (MTCC 170, 24 h), 100 µg/mL (≈ 108 µM).
